{"source": "paper PMC3222680", "about": "(PLoS ONE, 2011)", "key": {"homomeric α1Y27′A GlyR": {"biological_target": "homomeric α1Y27′A GlyR (Homo sapiens, UniProt P23415, Y307A)", "sequence (P23415 29-457 Y307A)": "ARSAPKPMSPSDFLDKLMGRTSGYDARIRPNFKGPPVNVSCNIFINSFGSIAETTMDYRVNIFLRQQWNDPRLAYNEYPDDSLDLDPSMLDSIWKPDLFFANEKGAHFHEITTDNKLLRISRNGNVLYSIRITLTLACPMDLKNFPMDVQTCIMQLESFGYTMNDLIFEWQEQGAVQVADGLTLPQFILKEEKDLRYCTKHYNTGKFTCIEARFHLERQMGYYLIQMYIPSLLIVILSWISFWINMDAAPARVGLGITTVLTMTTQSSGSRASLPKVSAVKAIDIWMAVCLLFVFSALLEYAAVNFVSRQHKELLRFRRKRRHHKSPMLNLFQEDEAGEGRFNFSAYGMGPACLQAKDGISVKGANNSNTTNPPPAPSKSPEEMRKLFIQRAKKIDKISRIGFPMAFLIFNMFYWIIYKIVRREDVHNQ", "details": "HEK293", "experimental": "(§1) The human GlyR α1 and β subunit cDNAs were subcloned into the pcDNA3.1zeo+ (Invitrogen) or pGEMHE [44] plasmid vectors for expression in HEK293 cells or Xenopus oocytes, respectively. Site-directed mutagenesis and chimera construction were performed using the QuickChange (Stratagene, La Jolla, CA, USA) mutagenesis and multiple-template-based sequential PCR protocols, respectively.\n(§2) The effects of the hyperekplexia-mimicking mutations, K24′A, V25′A and Y27′A, were examined on GlyRs expressed in HEK293 cells (ATCC). Details of the HEK293 cell culture, GlyR expression and electrophysiological recording of the HEK293 cells are described elsewhere. Briefly, HEK293 cells were maintained in DMEM supplemented with 10% fetal bovine serum. Cells were transfected using a calcium phosphate precipitation protocol. When co-transfecting the α1 together with the β or any other chimera subunits, their respective cDNAs were combined in a ratio of 1∶10. In addition, the pEGFP-N1 (Clontech) was co-transfected to facilitate identifying the transfected cells. […] Cells were treated with external Ringer's solution and internal CsCl solution [30]. Cells were voltage-clamped at −40 mV. When the heteromeric GlyRs were expressed, the picrotoxin sensitivity was tested to confirm that the majority of receptors are heteromers, [30]."}, "αY27′A β-αWT GlyR": {"biological_target": "αY27′A β-αWT GlyR (Homo sapiens, UniProt P23415+P48167, Y307A)", "experimental": "as §1\nFor the β-α chimeras used for determining the effect of hyperekplexia-mimicking mutations on α1 β GlyR channel function, the Thr at the M2 6′ position was replaced by a Cys. […] Through such a modification, picrotoxin resistance was used to distinguish the heteromeric α1 β-α GlyR from the homomeric α1 GlyR when the α1 and β-α subunits were co-expressed.\nThe effects of the hyperekplexia-mimicking mutations, K24′A, V25′A and Y27′A, were examined on GlyRs expressed in HEK293 cells (ATCC). Details of the HEK293 cell culture, GlyR expression and electrophysiological recording of the HEK293 cells are described elsewhere. Briefly, HEK293 cells were maintained in DMEM supplemented with 10% fetal bovine serum. Cells were transfected using a calcium phosphate precipitation protocol. […]\n(§3) Results are expressed as mean±standard error of the mean of three or more independent experiments. […] Statistical significance was determined using the Student's t-test."}, "αY27′A βWT GlyR": {"biological_target": "αY27′A βWT GlyR (Homo sapiens, UniProt P23415+P48167, Y307A)", "experimental": "as §1, §2, §3"}, "αY27′A α-βWT GlyR": {"biological_target": "αY27′A α-βWT GlyR (Homo sapiens, UniProt P23415+P48167, Y307A)", "experimental": "as §1, §2, §3"}, "αWT αB-β19′C GlyR": {"biological_target": "αWT αB-β19′C GlyR (Homo sapiens, UniProt P23415+P48167, A80Q/C69A)", "sequence (P23415 29-449 isoform P23415-2 C69A)": "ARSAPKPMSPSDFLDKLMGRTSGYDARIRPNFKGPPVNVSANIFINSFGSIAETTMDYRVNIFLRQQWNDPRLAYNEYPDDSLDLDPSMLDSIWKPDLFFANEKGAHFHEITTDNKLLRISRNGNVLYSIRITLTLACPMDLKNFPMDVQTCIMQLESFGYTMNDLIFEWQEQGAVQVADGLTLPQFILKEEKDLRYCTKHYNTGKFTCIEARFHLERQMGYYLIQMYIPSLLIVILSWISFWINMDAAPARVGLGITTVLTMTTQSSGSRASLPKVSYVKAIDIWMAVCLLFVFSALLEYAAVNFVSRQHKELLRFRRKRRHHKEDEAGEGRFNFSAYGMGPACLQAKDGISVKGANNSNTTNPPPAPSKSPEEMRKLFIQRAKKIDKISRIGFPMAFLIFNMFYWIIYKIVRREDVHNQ", "sequence (P23415+P48167 fused with the stated changes)": "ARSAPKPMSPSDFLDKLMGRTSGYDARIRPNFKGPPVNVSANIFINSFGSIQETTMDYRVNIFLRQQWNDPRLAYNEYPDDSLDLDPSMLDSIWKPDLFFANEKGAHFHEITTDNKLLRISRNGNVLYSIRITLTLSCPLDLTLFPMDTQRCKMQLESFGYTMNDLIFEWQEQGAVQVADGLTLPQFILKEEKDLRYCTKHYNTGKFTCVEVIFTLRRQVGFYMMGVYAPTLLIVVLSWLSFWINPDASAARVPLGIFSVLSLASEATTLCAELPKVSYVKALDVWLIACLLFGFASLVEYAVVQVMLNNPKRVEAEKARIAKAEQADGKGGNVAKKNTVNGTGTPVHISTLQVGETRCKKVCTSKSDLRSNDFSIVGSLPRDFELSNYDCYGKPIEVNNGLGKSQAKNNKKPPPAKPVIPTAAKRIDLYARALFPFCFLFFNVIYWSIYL", "details": "MTSR-labeled, oocytes", "experimental": "as §1\n(§4) For the VCF experiments, both GlyR α1 and β subunit cDNAs in the pGEMHE vector were mutated to substitute non-essential background cysteines with alanines, including α1C41A and βC115AC291A [46], [47].\n(§5) VCF experiments were performed on GlyRs expressed in Xenopus laevis oocytes. Female Xenopus laevis frogs were purchased from Xenopus Express, France. Details of oocyte preparation, GlyR expression and VCF recording are described elsewhere. Briefly, the mMessage mMachine kit (Ambion, Austin, TX) was used to generate capped mRNA. The mRNA was injected into oocytes of the female Xenopus laevis frog with 10 ng (1 ng α1 and 9 ng β or any other chimeric subunits) per oocyte. After injection, the oocytes were incubated in ND96 solution [33] for 3–4 days at 18 °C before recording.\n(§6) The sulfhydryl-reactive reagent, sulforhodamine methanethiosulfonate (MTSR, Toronto Research Chemicals, North York, Ontario, Canada), was used to label 19′C residues. […] The oocytes were then transferred to the recording chamber and perfused with ND96 solution. The current was recorded by the two-electrode voltage clamp configuration and the recording electrode was filled with 3 M KCl. Cells were voltage-clamped at −40 mV. The fluorescence was recorded using the PhotoMax 200 photodiode detection system (Dagan Corp., Minneapolis, MN).\nas §3"}, "α19′C βWT GlyR": {"biological_target": "α19′C βWT GlyR (Homo sapiens, UniProt P23415+P48167, C137A/C313A/C69A/R299C)", "details": "MTSR-labeled, oocytes", "experimental": "as §1, §4, §5, §6, §3"}, "αWT β19′C GlyR": {"biological_target": "αWT β19′C GlyR (Homo sapiens, UniProt P23415+P48167, A317C/C137A/C313A/C69A)", "sequence (P23415 29-449 isoform P23415-2 C69A)": "as the sequence (P23415 29-449 isoform P23415-2 C69A) above", "sequence (P48167 23-497 C137A/C313A/A317C)": "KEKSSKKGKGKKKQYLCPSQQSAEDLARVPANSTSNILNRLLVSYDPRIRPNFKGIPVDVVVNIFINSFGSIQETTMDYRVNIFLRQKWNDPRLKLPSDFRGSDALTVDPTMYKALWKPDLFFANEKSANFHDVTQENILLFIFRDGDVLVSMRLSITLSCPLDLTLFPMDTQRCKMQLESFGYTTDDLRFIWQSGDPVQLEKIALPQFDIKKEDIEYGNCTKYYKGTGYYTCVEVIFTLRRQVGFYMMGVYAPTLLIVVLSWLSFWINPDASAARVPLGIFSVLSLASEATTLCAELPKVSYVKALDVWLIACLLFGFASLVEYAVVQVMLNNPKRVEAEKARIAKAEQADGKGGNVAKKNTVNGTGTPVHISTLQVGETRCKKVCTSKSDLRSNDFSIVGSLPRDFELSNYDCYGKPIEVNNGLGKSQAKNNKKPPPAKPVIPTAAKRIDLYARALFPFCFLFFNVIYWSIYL", "details": "MTSR-labeled, oocytes", "experimental": "as §1, §4, §5, §6, §3"}, "αWT α-β19′C GlyR": {"biological_target": "αWT α-β19′C GlyR (Homo sapiens, UniProt P23415+P48167, C69A)", "sequence (P23415 29-449 isoform P23415-2 C69A)": "as the sequence (P23415 29-449 isoform P23415-2 C69A) above", "sequence (P23415+P48167 fused with the stated changes)": "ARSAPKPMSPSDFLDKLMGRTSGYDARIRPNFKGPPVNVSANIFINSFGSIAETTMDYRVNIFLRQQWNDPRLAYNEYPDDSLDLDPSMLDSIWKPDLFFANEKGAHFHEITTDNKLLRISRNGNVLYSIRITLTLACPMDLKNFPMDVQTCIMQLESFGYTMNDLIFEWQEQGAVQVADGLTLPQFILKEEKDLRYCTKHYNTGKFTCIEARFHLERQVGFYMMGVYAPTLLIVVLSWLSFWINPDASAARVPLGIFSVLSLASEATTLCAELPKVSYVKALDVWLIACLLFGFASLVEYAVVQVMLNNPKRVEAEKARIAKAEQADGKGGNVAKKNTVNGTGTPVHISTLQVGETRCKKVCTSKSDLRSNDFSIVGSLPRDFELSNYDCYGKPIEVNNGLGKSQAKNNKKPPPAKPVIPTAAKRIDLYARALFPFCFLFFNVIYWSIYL", "details": "MTSR-labeled, oocytes", "experimental": "as §1, §4, §5, §6, §3"}, "αWT β-α19′C GlyR": {"biological_target": "αWT β-α19′C GlyR (Homo sapiens, UniProt P23415+P48167, C137A/C69A/R299C)", "sequence (P23415 29-449 isoform P23415-2 C69A)": "as the sequence (P23415 29-449 isoform P23415-2 C69A) above", "sequence (P48167+P23415 fused with the stated changes)": "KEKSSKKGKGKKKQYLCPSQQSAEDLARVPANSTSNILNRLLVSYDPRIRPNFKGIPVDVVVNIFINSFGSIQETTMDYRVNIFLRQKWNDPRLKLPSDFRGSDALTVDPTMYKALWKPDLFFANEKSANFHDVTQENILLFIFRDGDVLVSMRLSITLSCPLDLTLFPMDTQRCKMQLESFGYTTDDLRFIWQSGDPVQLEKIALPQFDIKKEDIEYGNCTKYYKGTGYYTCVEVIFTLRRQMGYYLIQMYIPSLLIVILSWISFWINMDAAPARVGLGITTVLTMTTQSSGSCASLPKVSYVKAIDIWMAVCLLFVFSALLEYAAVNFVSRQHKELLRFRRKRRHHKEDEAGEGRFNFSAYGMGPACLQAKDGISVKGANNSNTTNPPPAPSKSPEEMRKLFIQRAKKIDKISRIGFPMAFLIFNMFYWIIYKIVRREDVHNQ", "details": "MTSR-labeled, oocytes", "experimental": "as §1, §4, §5, §6, §3"}, "αWT αT-β19′C GlyR": {"biological_target": "αWT αT-β19′C GlyR (Homo sapiens, UniProt P23415+P48167, A317C/C137A/C313A/C69A/Q95A)", "sequence (P23415 29-449 isoform P23415-2 C69A)": "as the sequence (P23415 29-449 isoform P23415-2 C69A) above", "sequence (P48167 23-497 with the stated changes)": "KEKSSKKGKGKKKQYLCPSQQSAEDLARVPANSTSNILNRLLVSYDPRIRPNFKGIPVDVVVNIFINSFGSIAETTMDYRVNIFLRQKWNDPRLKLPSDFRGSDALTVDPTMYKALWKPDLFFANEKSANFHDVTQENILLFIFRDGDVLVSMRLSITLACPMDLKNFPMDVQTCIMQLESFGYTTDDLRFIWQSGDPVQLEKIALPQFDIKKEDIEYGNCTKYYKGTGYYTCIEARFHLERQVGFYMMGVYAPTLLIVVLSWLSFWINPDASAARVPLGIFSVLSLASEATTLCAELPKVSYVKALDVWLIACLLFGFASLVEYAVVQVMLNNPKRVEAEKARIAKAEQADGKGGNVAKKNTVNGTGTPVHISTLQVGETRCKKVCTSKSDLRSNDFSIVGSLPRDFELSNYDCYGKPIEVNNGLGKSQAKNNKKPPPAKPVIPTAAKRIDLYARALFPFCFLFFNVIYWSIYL", "details": "MTSR-labeled, oocytes", "experimental": "as §1, §4, §5, §6, §3"}, "[1]": {"system": "α-β, β-α, αB-β and αT-β subunits expressed alone", "details": "chimeric subunits expressed alone in oocytes; data not shown", "experimental": "as §5, §6"}, "[2]": {"system": "chimera α–β or chimera β–α transfected alone", "assay": "Whole cell patch-clamp, chimeras transfected alone into HEK293 cells", "format": "cell-based, human", "details": "glycine up to 100 mM, data not shown", "experimental": "as §1, §2"}, "[3]": {"details": "Hill coefficient of glycine-induced current"}}, "data": [{"smiles": "NCC(=O)O", "note": "[glycine]", "values": [{"measurement": "glycine-induced current", "setting": "homomeric α1Y27′A GlyR", "result": "no glycine-induced current was detected"}, {"measurement": "nH", "setting": "αY27′A β-αWT GlyR; [3]", "result": "1.0±0.1"}, {"measurement": "Imax", "setting": "αY27′A β-αWT GlyR; glycine-induced current", "result": "1.3±0.3", "unit": "nA"}, {"measurement": "nH", "setting": "αY27′A βWT GlyR; [3]", "result": "1.1±0.0"}, {"measurement": "Imax", "setting": "αY27′A βWT GlyR; glycine-induced current", "result": "2.0±1.0", "unit": "nA"}, {"measurement": "nH", "setting": "αY27′A α-βWT GlyR; [3]", "result": "0.78±0.03"}, {"measurement": "Imax", "setting": "αY27′A α-βWT GlyR; glycine-induced current", "result": "5.7±1.3", "unit": "nA"}, {"measurement": "Current Imax", "setting": "αWT αB-β19′C GlyR", "result": "2.57±0.14", "unit": "µA"}, {"measurement": "Current nH", "setting": "αWT αB-β19′C GlyR", "result": "2.11±0.11"}, {"measurement": "Fluorescence Fmax", "setting": "αWT αB-β19′C GlyR", "result": "8.52±1.07", "unit": "%"}, {"measurement": "Fluorescence nH", "setting": "αWT αB-β19′C GlyR", "result": "1.19±0.12"}, {"measurement": "Current Imax", "setting": "α19′C βWT GlyR", "result": "3.51±0.24", "unit": "µA"}, {"measurement": "Current nH", "setting": "α19′C βWT GlyR", "result": "1.20±0.16"}, {"measurement": "Fluorescence Fmax", "setting": "α19′C βWT GlyR", "result": "9.42±0.53", "unit": "%"}, {"measurement": "Fluorescence nH", "setting": "α19′C βWT GlyR", "result": "0.97±0.04"}, {"measurement": "Current Imax", "setting": "αWT β19′C GlyR", "result": "2.46±0.19", "unit": "µA"}, {"measurement": "Current nH", "setting": "αWT β19′C GlyR", "result": "2.73±0.38"}, {"measurement": "Fluorescence Fmax", "setting": "αWT β19′C GlyR", "result": "7.58±0.84", "unit": "%"}, {"measurement": "Fluorescence nH", "setting": "αWT β19′C GlyR", "result": "1.47±0.12"}, {"measurement": "Current Imax", "setting": "αWT α-β19′C GlyR", "result": "1.53±0.09", "unit": "µA"}, {"measurement": "Current nH", "setting": "αWT α-β19′C GlyR", "result": "2.36±0.32"}, {"measurement": "Fluorescence Fmax", "setting": "αWT α-β19′C GlyR", "result": "6.58±1.17", "unit": "%"}, {"measurement": "Fluorescence nH", "setting": "αWT α-β19′C GlyR", "result": "2.10±0.13"}, {"measurement": "Current Imax", "setting": "αWT β-α19′C GlyR", "result": "3.19±0.08", "unit": "µA"}, {"measurement": "Current nH", "setting": "αWT β-α19′C GlyR", "result": "2.26±0.11"}, {"measurement": "Fluorescence Fmax", "setting": "αWT β-α19′C GlyR", "result": "3.86±0.37", "unit": "%"}, {"measurement": "Fluorescence nH", "setting": "αWT β-α19′C GlyR", "result": "1.15±0.05"}, {"measurement": "Current Imax", "setting": "αWT αT-β19′C GlyR", "result": "2.19±0.20", "unit": "µA"}, {"measurement": "Current nH", "setting": "αWT αT-β19′C GlyR", "result": "1.45±0.06"}, {"measurement": "Fluorescence Fmax", "setting": "αWT αT-β19′C GlyR", "result": "11.5±0.6", "unit": "%"}, {"measurement": "Fluorescence nH", "setting": "αWT αT-β19′C GlyR", "result": "2.31±0.06"}, {"measurement": "glycine-induced current and fluorescence changes", "setting": "[1]", "result": "neither glycine-induced current nor fluorescence changes could be detected"}, {"measurement": "current upon application of glycine", "setting": "[2]", "result": "neither chimera, when transfected alone into HEK293 cells, induced any current"}]}]}
